6 molecules from patent publication US20180360040A1, “PESTICIDAL COMPOUNDS AND THEIR USES” (priority 2015, published 2018) can be followed below.

Common to all, as to format: in vivo
Test [1] concerns Diabrotica balteata. Nature of the test: Example B1: Diabrotica balteata (corn root worm), sprayed maize sprouts. To be noted: 96 h, read-out: effect in at least one of the two categories (mortality or growth inhibition). As to the method: Example B1: Diabrotica balteata (Corn Root Worm)
Maize sprouts placed onto an agar layer in 24-well microtiter plates were treated with aqueous test solutions prepared from 10,000 ppm DMSO stock solutions by spraying. After drying, the plates were infested with L2 larvae (6 to 10 per well). The samples were assessed for mortality and growth inhibition in comparison to untreated samples 4 days after infestation.

Test [2] has as its system Aedes aegypti. Nature of the test: Example B11: insecticide impregnated polymer surfaces (LDPE sheets), Aedes aegypti. As to conditions: 2% active ingredient in LDPE sheets, after 48 h and/or 24 h. The text has this: (§1) Example B11: Evaluation of Insecticide Impregnated Polymer Surfaces
(§2) Preparation of polymeric sheets: Compound P1.17 was impregnated into LDPE (low density polyethylene) by mixing the respective polymer with the compound at high temperatures and the resultant polymeric material was then mould into thin discs or plaques.
(§3) Twenty four hours prior to the relevant assessment intervals, three to five day old non-blood fed adult mosquitoes were taken from the culture and lightly anaesthetised with carbon dioxide. Ten females were selected and placed in a 250 ml plastic cup, retained with a net lid, provided with a 10% sucrose solution soaked in a cotton wool bung and held under culturing environmental conditions.
(§4) After twenty four hours, impregnated polymer sheets (measuring about 150 mm in diameter and about 0.1 mm in thickness) were removed from storage and wrapped around the glazed side of an 11 cm ceramic tile and held in place with an elastic band. The age of the polymer sheets used were either 1-2 weeks or 10 weeks old. A cup of the pre-selected mosquitoes were again lightly anaesthetised with carbon dioxide and transferred from the holding cup to the base of a 9 cm plastic Petri dish. The relevant impregnated polymer sheet was placed over the Petri dish and held in place with an elastic band. Once the mosquitoes had recovered from the anaesthetic, ca. 1 minute, the impregnated polymer sheet was placed on a holding rack, such that treated side was at an angle of 60° to the horizontal.
(§5) After one hour an assessment of mosquito knockdown was made. A mosquito was said to be knocked down if it was unable to right itself once it had fallen over. The mosquitoes were lightly anaesthetised again, and removed from the Petri dish exposure chamber and returned to the holding cups. The mosquitoes were supplied with a 10% sucrose solution soaked in a cotton wool bung and held under culturing environmental conditions. An assessment of mortality was made 24 hours and 48 hours after exposure. A mosquito was said to be dead if it is unable to right itself once it had fallen over.

In test [3] the test system is Spodoptera littoralis. The test can be described thus: Example B5: Spodoptera littoralis (Egyptian cotton leaf worm), sprayed cotton leaf discs. To be noted: foliar, 72 h, application rate 200 ppm, L1 larvae, 3 days after infestation, read-out: control (mortality, anti-feeding effect, growth inhibition). As to the method:
Example B5: Spodoptera littoralis (Egyptian Cotton Leaf Worm)
Cotton leaf discs were placed onto agar in 24-well microtiter plates and sprayed with aqueous test solutions prepared from 10,000 ppm DMSO stock solutions. After drying the leaf discs were infested with five L1 larvae. The samples were assessed for mortality, anti-feeding effect, and growth inhibition in comparison to untreated samples 3 days after infestation. Control of Spodoptera littoralis by a test sample is given when at least one of the categories mortality, anti-feedant effect, and growth inhibition is higher than the untreated sample.

Test [4] relates to Myzus persicae. Nature of the test: Example B4: Myzus persicae (green peach aphid), intrinsic activity. To be noted: 120 h, test rate 12 ppm, 5 days after infestation. An excerpt: Example B4: Myzus persicae (Green Peach Aphid): Intrinsic Activity
Test compounds prepared from 10,000 ppm DMSO stock solutions were applied by pipette into 24-well microtiter plates and mixed with sucrose solution. The plates were closed with a stretched Parafilm. A plastic stencil with 24 holes was placed onto the plate and infested pea seedlings were placed directly on the Parafilm. The infested plate was closed with a gel blotting paper and another plastic stencil and then turned upside down. The samples were assessed for mortality 5 days after infestation.

Test [5] deals with Anopheles stephensi. Nature of the test: Example B11: insecticide impregnated polymer surfaces (LDPE sheets), Anopheles stephensi. As to conditions: 2% active ingredient in LDPE sheets, after 48 h and/or 24 h.
Excerpt: as §1, §2, §3, §4, §5

Test [6] concerns Plutella xylostella. The test can be described thus: Example B4 (second): Plutella xylostella (diamond back moth), artificial diet. To be noted: 120 h, application rate 200 ppm, L2 larvae, 5 days after infestation, read-out: effect in at least one of the two categories (mortality or growth inhibition). As to the method: Example B4: Plutella xylostella (Diamond Back Moth)
24-well microtiter plates with artificial diet were treated with aqueous test solutions prepared from 10,000 ppm DMSO stock solutions by pipetting. After drying, the plates were infested with L2 larvae (10 to 15 per well). The samples were assessed for mortality and growth inhibition in comparison to untreated samples 5 days after infestation.

The test system of test [7] is Spodoptera littoralis. The test can be described thus: Example B6: Spodoptera littoralis (Egyptian cotton leaf worm), root uptake by lettuce from agar. To be noted: 144 h, test rate 12.5 ppm, 6 days after infestation, read-out: effect in at least one of the three categories (mortality, anti-feeding, or growth inhibition). An excerpt: Example B6: Spodoptera littoralis (Egyptian Cotton Leaf Worm)
Test compounds were applied by pipette from 10,000 ppm DMSO stock solutions into 24-well plates and mixed with agar. Lettuce seeds were placed onto the agar and the multi well plate was closed by another plate which contained also agar. After 7 days the compound was absorbed by the roots and the lettuce grew into the lid plate. The lettuce leaves were then cut off into the lid plate. Spodoptera eggs were pipetted through a plastic stencil onto a humid gel blotting paper and the lid plate was closed with it. The samples were assessed for mortality, anti-feedant effect and growth inhibition in comparison to untreated samples 6 days after infestation.

Test [8] deals with Tetranychus urticae. Nature of the test: Example B7: Tetranychus urticae (two-spotted spider mite), feeding/contact activity. To be noted: 192 h, application rate 200 ppm, mixed population (mobile stages), 8 days after infestation. As to the method: Example B7: Tetranychus urticae (Two-Spotted Spider Mite): Feeding/Contact Activity
Bean leaf discs on agar in 24-well microtiter plates were sprayed with aqueous test solutions prepared from 10,000 ppm DMSO stock solutions. After drying the leaf discs were infested with a mite population of mixed ages. The samples were assessed for mortality on mixed population (mobile stages) 8 days after infestation.

Test [9] has as its system Euschistus heros. Nature of the test: Example B2: Euschistus heros (neotropical brown stink bug), sprayed soybean leaves. As to conditions: 120 h, application rate 200 ppm, N2 nymphs, 5 days after infestation, read-out: effect in at least one of the two categories (mortality or growth inhibition). The protocol:
Example B2: Euschistus heros (Neotropical Brown Stink Bug)
Soybean leaves on agar in 24-well microtiter plates were sprayed with aqueous test solutions prepared from 10,000 ppm DMSO stock solutions. After drying the leaves were infested with N2 nymphs. The samples were assessed for mortality and growth inhibition in comparison to untreated samples 5 days after infestation.

Consider `CN1OC(c2ccc(-c3ccc(F)cc3)cc2)(C2CC2)N=C1NC(C)(C)C` (stereo not shown) [Compound P1.137, N-tert-butyl-5-cyclopropyl-5-[4-(4-fluorophenyl)phenyl]-2-methyl-1,2,4-oxadiazol-3-amine], for which, in test [1], the percent control (mortality or growth inhibition) at 200 ppm is at least 80%.
On to `CN1OC(c2ccccc2)(C2CC2)N=C1N(C)C(C)(C)C` (stereo not shown) [Compound P1.18, N-tert-Butyl-5-cyclopropyl-N,2-dimethyl-5-phenyl-1,2,4-oxadiazol-3-amine], for which the percent control (mortality or growth inhibition) at 200 ppm in [1] is at least 80%.
With `CN1OC(c2ccc(C#N)cc2)(C2CC2)N=C1NC(C)(C)C` (stereo not shown) [Compound P1.136, 4-[3-(tert-butylamino)-5-cyclopropyl-2-methyl-1,2,4-oxadiazol-5-yl]benzonitrile], the percent control (mortality or growth inhibition) at 200 ppm in test [1] was at least 80%.
For orientation: mortality means the share of the test organisms that died. `CN1OC(c2ccccc2)(C2CC2)N=C1NC(C)(C)C` (stereo not shown) [Compound P1.17, N-tert-Butyl-5-cyclopropyl-2-methyl-5-phenyl-1,2,4-oxadiazol-3-amine]: the “control of Aedes Aegypti” value in [2] (sheet after 1 week), in [2] (sheet after 2 weeks) and in test [2] (sheet after 10 weeks) was “at least 80%” each time. Further, the mortality at 200 ppm in [3] was at least 80%. The molecule also displayed a mortality at 12 ppm in test [4] of at least 80%. Also, the percent control (mortality or growth inhibition) at 200 ppm in [1] was at least 80%. Moreover, the “control of Anopheles stephensi” value in [5] (sheet after 1 week), in [5] (sheet after 2 weeks) and in test [5] (sheet after 10 weeks) was “at least 80%” in each case. The percent effect (mortality or growth inhibition) at 200 ppm in [6] was at least 80%.
In the case of `CN1OC(c2ccc(F)cc2)(C2CC2)N=C1NC(C)(C)C(F)(F)F` (stereo not shown) [Compound P1.88, 5-Cyclopropyl-5-(4-fluorophenyl)-2-methyl-N-(2,2,2-trifluoro-1,1-dimethyl-ethyl)-1,2,4-oxadiazol-3-amine], the mortality at 200 ppm in test [3] and in test [8] was at least 80% throughout. The percent effect (mortality, anti-feeding or growth inhibition) at 12.5 ppm in test [7] was at least 80%. In test [4], this molecule registered a mortality at 12 ppm of at least 80%. For the same molecule, the percent effect (mortality or growth inhibition) at 200 ppm in [9] and in test [6] was at least 80% each time. Moreover, in test [1], the percent control (mortality or growth inhibition) at 200 ppm was at least 80%.
For the molecule `CCC1(c2ccccc2)N=C(NC(C)(C)C)N(C)O1` (stereo not shown) [Compound P1.94, N-tert-Butyl-5-ethyl-2-methyl-5-phenyl-1,2,4-oxadiazol-3-amine], the mortality at 200 ppm in [8] is at least 80%. Besides, the percent control (mortality or growth inhibition) at 200 ppm in test [1] was at least 80%.
